Data from US12448388B2, “PRMT5 inhibitors and uses thereof” (Gilead Sciences, Inc., priority 2023, dated 2025).

system: HCT116 MTAP-deleted cell lines; test: Cell viability assay (CellTiter-Glo, 7 days), HCT116 MTAP-deleted; assay type: cell-based; conditions: Homo sapiens, HCT-116
In short: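 PRMT5 inhibitors were serially diluted in DMSO and acoustically spotted as dose-response series into plates before cell seeding. Cells were grown with compound for 7 days at 37 °C, 5% CO2, 90% humidity, then viability was read by CellTiter-Glo luminescence and reported as CC50.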

Structure (SMILES) | CC50
Nc1nc2cc(F)c(C(=O)N3CC4(CC[C@@H]3c3ccc(C(F)(F)F)cc3)CC4)cc2n2cncc12 (single isomer, unassigned) [Ff-154] | < 0.1 µM
Nc1nc2cc(F)c(C(=O)N3CC4(CC[C@H]3c3ccc(C(F)(F)F)cc3)CC4)cc2n2cncc12 (single isomer, unassigned) [Ff-155] | 0.1 to 1 µM

same assay, conditions: Homo sapiens, HCT-116; cell viability assay, HCT116 MTAP-deleted; class symbols; read-out: CC50

Structure (SMILES) | CC50
CN(C(=O)c1cc2c(cc1F)nc(N)c1cncn12)[C@@H]1COc2cc(C3CCOC3)ccc21 (mixture of isomers) [Ff-484, Rac-4-amino-7-fluoro-N-methyl-N-((3S)-6-(tetrahydrofuran-3-yl)-2,3-dihydrobenzofuran-3-yl)imidazo[1,5-a]quinoxaline-8-carboxamide] | < 0.1 µM
Cc1ncc2c(N)nc3cnc(C(=O)N4C(C)CCC5Oc6cc(C(F)(F)F)ccc6C54)cc3n12 (racemic) [Ff-586, Rac-(4-amino-1-methylimidazo[1,5-a]pyrido[3,4-e]pyrazin-8-yl)(2-methyl-7-(trifluoromethyl)-3,4,4a,9b-tetrahydrobenzofuro[3,2-b]pyridin-1(2H)-yl)methanone] | < 0.1 µM
Cc1ncn2c1c(N)nc1cnc(C(=O)N3C[C@H](F)CC4Oc5cc(C(F)(F)F)ccc5C43)cc12 (mixture of isomers) [Ff-650, Rac-(4-amino-3-methylimidazo[1,5-a]pyrido[3,4-e]pyrazin-8-yl)((3R,4aS,9bS)-3-fluoro-7-(trifluoromethyl)-3,4,4a,9b-tetrahydrobenzofuro[3,2-b]pyridin-1(2H)-yl)methanone] | < 0.1 µM
Nc1nc2cnc(C(=O)N3CC4(CCC4)C[C@@H]4Oc5cc(C(F)(F)F)ccc5[C@@H]43)cc2n2cncc12 (racemic) [Ff-688, Rac-(4-aminoimidazo[1,5-a]pyrido[3,4-e]pyrazin-8-yl)((4aS,9bS)-7-(trifluoromethyl)-4a,9b-dihydro-2H-spiro[benzofuro[3,2-b]pyridine-3,1′-cyclobutan]-1(4H)-yl)methanone] | < 0.1 µM
Cc1ncn2c1c(N)nc1cc(Cl)c(C(=O)N3CCC[C@@H]4Oc5nc(C(F)(F)F)ccc5[C@@H]43)cc12 (racemic) [Fg-29, Rac-(4-amino-7-chloro-3-methylimidazo[1,5-a]quinoxalin-8-yl)((4aS,9bS)-7-(trifluoromethyl)-3,4,4a,9b-tetrahydrofuro[2,3-b:4,5-b′]dipyridin-1(2H)-yl)methanone] | < 0.1 µM
Nc1nc2cc(F)c(C(=O)N3CCO[C@@H]4CCc5ccccc5[C@@H]43)cc2n2cncc12 (relative stereo) [Ff-427, cis-2,3,4a,5,6,10b-hexahydrobenzo[f][1,4]benzoxazin-1-yl-(4-amino-7-fluoro-imidazo[1,5-a]quinoxalin-8-yl)methanone] | 0.1 to 1 µM

same assay, conditions: Homo sapiens, HCT-116; cell viability, HCT116 MTAP-deleted; class symbols; read-out: CC50

Structure (SMILES) | CC50
Nc1nc2cc(F)c(C(=O)N3CCO[C@H]4Cc5cc(Br)ccc5[C@H]43)cc2n2cncc12 (single isomer, unassigned) [Ff-75] | 0.1 to 1 µM
Nc1nc2cc(F)c(C(=O)N3CCO[C@@H]4Cc5cc(Br)ccc5[C@@H]43)cc2n2cncc12 (single isomer, unassigned) [Ff-76] | < 0.1 µM
C[C@@H]1CN(C(=O)c2cc3c(cc2F)nc(N)c2cncn23)[C@H]2c3ccc(C(F)(F)F)cc3C[C@H]2O1 (single isomer, unassigned) [Ff-77] | < 0.1 µM
C[C@@H]1CN(C(=O)c2cc3c(cc2F)nc(N)c2cncn23)[C@@H]2c3ccc(C(F)(F)F)cc3C[C@@H]2O1 (single isomer, unassigned) [Ff-78] | < 0.1 µM
C[C@H]1CN(C(=O)c2cc3c(cc2F)nc(N)c2cncn23)[C@@H]2c3ccc(C(F)(F)F)cc3C[C@@H]2O1 (single isomer, unassigned) [Ff-80] | < 0.1 µM
Nc1nc2cc(F)c(C(=O)N3CCO[C@H]4Cc5cc(C(F)(F)F)ccc5[C@H]43)cc2n2cncc12 (single isomer, unassigned) [Ff-83] | 0.1 to 1 µM
Nc1nc2cc(F)c(C(=O)N3CCCC[C@@H]3c3ccc(C(F)(F)F)cc3F)cc2n2cncc12 (single isomer, unassigned) [Ff-151] | < 0.1 µM
Nc1nc2cc(F)c(C(=O)N3CCCC[C@H]3c3ccc(C(F)(F)F)cc3F)cc2n2cncc12 (single isomer, unassigned) [Ff-152] | 0.1 to 1 µM
C[C@H]1CN(C(=O)c2cc3c(cc2F)nc(N)c2cncn23)[C@H]2c3ccc(Br)c(F)c3C[C@H]2O1 (single isomer, unassigned) [Ff-164] | < 0.1 µM
C[C@H]1CN(C(=O)c2cc3c(cc2F)nc(N)c2cncn23)[C@H]2c3ccc(C(F)F)c(F)c3C[C@H]2O1 (single isomer, unassigned) [Ff-171] | < 0.1 µM
C[C@@H]1CN(C(=O)c2cc3c(cc2F)nc(N)c2cncn23)[C@H]2c3cc(F)c(C(F)F)cc3C[C@H]2O1 (single isomer, unassigned) [Ff-172] | < 0.1 µM
C[C@H]1CN(C(=O)c2cc3c(cc2F)nc(N)c2cncn23)[C@H]2c3ccc(OC(F)(F)F)cc3C[C@H]2O1 (single isomer, unassigned) [Ff-184] | < 0.1 µM
C[C@@H]1CN(C(=O)c2cc3c(cn2)nc(N)c2cncn23)[C@H]2c3ccc(OC(F)(F)F)cc3C[C@H]2O1 (single isomer, unassigned) [Ff-185] | < 0.1 µM
C[C@H]1CN(C(=O)c2cc3c(cn2)nc(N)c2cncn23)[C@H]2c3ccc(OC(F)(F)F)cc3C[C@H]2O1 (single isomer, unassigned) [Ff-186] | < 0.1 µM
C[C@@H]1CN(C(=O)c2ccc3nc(N)c4cncn4c3c2)[C@H]2c3ccc(OC(F)(F)F)cc3C[C@H]2O1 (single isomer, unassigned) [Ff-187] | < 0.1 µM
C[C@H]1CN(C(=O)c2ccc3nc(N)c4cncn4c3c2)[C@H]2c3ccc(OC(F)(F)F)cc3C[C@H]2O1 (single isomer, unassigned) [Ff-188] | < 0.1 µM
Cc1ncc2c(N)nc3ccc(C(=O)N4C[C@@H](C)O[C@@H]5Cc6cc(OC(F)(F)F)ccc6[C@@H]54)cc3n12 (single isomer, unassigned) [Ff-189] | 0.1 to 1 µM
Cc1ncc2c(N)nc3ccc(C(=O)N4C[C@H](C)O[C@@H]5Cc6cc(OC(F)(F)F)ccc6[C@@H]54)cc3n12 (single isomer, unassigned) [Ff-190] | 0.1 to 1 µM
C[C@@H]1CN(C(=O)c2cc3c(cc2F)nc(N)c2cncn23)[C@H]2c3ccc(OC(F)(F)F)c(F)c3C[C@H]2O1 (single isomer, unassigned) [Ff-191] | < 0.1 µM
C[C@H]1CN(C(=O)c2cc3c(cc2F)nc(N)c2cncn23)[C@H]2c3ccc(OC(F)(F)F)c(F)c3C[C@H]2O1 (single isomer, unassigned) [Ff-192] | < 0.1 µM
C[C@@H]1CN(C(=O)c2cc3c(cn2)nc(N)c2cncn23)[C@H]2c3ccc(OC(F)(F)F)c(F)c3C[C@H]2O1 (single isomer, unassigned) [Ff-193] | 0.1 to 1 µM
C[C@H]1CN(C(=O)c2cc3c(cn2)nc(N)c2cncn23)[C@H]2c3ccc(OC(F)(F)F)c(F)c3C[C@H]2O1 (single isomer, unassigned) [Ff-194] | 0.1 to 1 µM
C[C@@H]1CN(C(=O)c2cc3c(cn2)nc(N)c2cncn23)[C@H]2c3cc(F)c(OC(F)(F)F)cc3C[C@H]2O1 (single isomer, unassigned) [Ff-195] | < 0.1 µM
C[C@H]1CN(C(=O)c2cc3c(cn2)nc(N)c2cncn23)[C@H]2c3cc(F)c(OC(F)(F)F)cc3C[C@H]2O1 (single isomer, unassigned) [Ff-196] | < 0.1 µM
